From ChEMBL document CHEMBL3885881, “DrugMatrix”

Species on record: Rattus norvegicus
Experiment: DrugMatrix - Regimen: Daily Repeat
Assay type: toxicity, organism-based, Sprague-Dawley
Design: regimen Daily Repeat, gender Male, age 6-8 weeks
Conditions: in vivo, po, route oral GAVAGE, […]; for ABSOLUTE BASOPHIL / ABSOLUTE EOSINOPHIL / ABSOLUTE LYMPHOCYTE / ABSOLUTE MONOCYTE / ABSOLUTE SEGMENTED NEUTROPHIL / BASOPHIL / EOSINOPHIL / ERYTHROCYTE COUNT / HEMATOCRIT / HEMOGLOBIN / LEUKOCYTE COUNT / LYMPHOCYTE / MEAN CORPUSCULAR HEMOGLOBIN / MEAN CORPUSCULAR HEMOGLOBIN CONCENTRATION / MONOCYTE / NEUTROPHIL / NUCLEATED RED BLOOD CELLS / PLATELET COUNT: tissue Blood; for ALANINE AMINOTRANSFERASE / ALBUMIN / ALKALINE PHOSPHATASE / ASPARTATE AMINOTRANSFERASE / BLOOD UREA NITROGEN / CARBON DIOXIDE / CHLORIDE / CHOLESTEROL / CREATINE PHOSPHOKINASE / CREATININE / LACTATE DEHYDROGENASE / LIPASE / PHOSPHORUS / POTASSIUM / SODIUM / TOTAL BILIRUBIN / TOTAL PROTEIN / URIC ACID: tissue Plasma
[1] = 10 mg/kg, 120 h, dose level Low, time 5 day
[2] = 1800 mg/kg, 72 h, dose level High, time 3 day
[3] = 1800 mg/kg, 120 h, dose level High, time 5 day

## CN(CCOc1ccc(CC2SC(=O)NC2=O)cc1)c1ccccn1 (stereo not drawn) [ROSIGLITAZONE]
[1]
  ABSOLUTE BASOPHIL: 0 CELLS/uL
  ABSOLUTE EOSINOPHIL: 76.67 CELLS/uL
  ABSOLUTE LYMPHOCYTE: 6940.67 CELLS/uL
  ABSOLUTE MONOCYTE: 0 CELLS/uL
  ABSOLUTE SEGMENTED NEUTROPHIL: 749.33 CELLS/uL
  BASOPHIL: 0%
  EOSINOPHIL: 1%
  ERYTHROCYTE COUNT: 4.86 x10E6/uL
  HEMATOCRIT: 32.47%
  HEMOGLOBIN: 12.6 G/DL
  LEUKOCYTE COUNT: 7.77 x10E3/uL
  LYMPHOCYTE: 89.33%
  MEAN CORPUSCULAR HEMOGLOBIN: 25.9 pg
  MEAN CORPUSCULAR HEMOGLOBIN CONCENTRATION: 38.83 G/DL
  MONOCYTE: 0%
  NEUTROPHIL: 9.67%
  NUCLEATED RED BLOOD CELLS: 0 /100WBC
  PLATELET COUNT: 1021.33 x10E3/uL
  ALANINE AMINOTRANSFERASE: 62 u/L
  ALBUMIN: 3.97 G/DL
  ALKALINE PHOSPHATASE: 357.67 u/L
  ASPARTATE AMINOTRANSFERASE: 91 u/L
  BLOOD UREA NITROGEN: 16.67 mg/dL
  CARBON DIOXIDE: 33.33 mmol/L
  CHLORIDE: 101 MEQ/L
  CHOLESTEROL: 67.67 mg/dL
  CREATINE PHOSPHOKINASE: 238 u/L
  CREATININE: 0.13 mg/dL
  LACTATE DEHYDROGENASE: 63.33 u/L
  LIPASE: 13.67 u/L
  PHOSPHORUS: 10.13 mg/dL
  POTASSIUM: 4.62 MEQ/L
  SODIUM: 146.1 MEQ/L
  TOTAL BILIRUBIN: 0.0333 mg/dL
  TOTAL PROTEIN: 5.5 G/DL
  URIC ACID: 0.27 mg/dL
[2]
  ABSOLUTE BASOPHIL: 0 CELLS/uL
  ABSOLUTE EOSINOPHIL: 26 CELLS/uL
  ABSOLUTE LYMPHOCYTE: 10365.67 CELLS/uL
  ABSOLUTE MONOCYTE: 125.33 CELLS/uL
  ABSOLUTE SEGMENTED NEUTROPHIL: 983 CELLS/uL
  BASOPHIL: 0%
  EOSINOPHIL: 0.33%
  ERYTHROCYTE COUNT: 5.03 x10E6/uL
  HEMATOCRIT: 31.87%
  HEMOGLOBIN: 12.43 G/DL
  LEUKOCYTE COUNT: 11.5 x10E3/uL
  LYMPHOCYTE: 90.67%
  MEAN CORPUSCULAR HEMOGLOBIN: 24.77 pg
  MEAN CORPUSCULAR HEMOGLOBIN CONCENTRATION: 39.03 G/DL
  MONOCYTE: 0.67%
  NEUTROPHIL: 8.33%
  NUCLEATED RED BLOOD CELLS: 0 /100WBC
  PLATELET COUNT: 1207.33 x10E3/uL
  ALANINE AMINOTRANSFERASE: 77.67 u/L
  ALBUMIN: 3.97 G/DL
  ALKALINE PHOSPHATASE: 304.33 u/L
  ASPARTATE AMINOTRANSFERASE: 99.67 u/L
  BLOOD UREA NITROGEN: 14.67 mg/dL
  CARBON DIOXIDE: 29.33 mmol/L
  CHLORIDE: 103 MEQ/L
  CHOLESTEROL: 44.67 mg/dL
  CREATINE PHOSPHOKINASE: 406.67 u/L
  CREATININE: 0.29 mg/dL
  LACTATE DEHYDROGENASE: 107.33 u/L
  LIPASE: 23.33 u/L
  PHOSPHORUS: 8.37 mg/dL
  POTASSIUM: 4.78 MEQ/L
  SODIUM: 144.7 MEQ/L
  TOTAL BILIRUBIN: 0.17 mg/dL
  TOTAL PROTEIN: 5.07 G/DL
  URIC ACID: 0.43 mg/dL
[3]
  ABSOLUTE BASOPHIL: 0 CELLS/uL
  ABSOLUTE EOSINOPHIL: 16.67 CELLS/uL
  ABSOLUTE LYMPHOCYTE: 4629 CELLS/uL
  ABSOLUTE MONOCYTE: 80.67 CELLS/uL
  ABSOLUTE SEGMENTED NEUTROPHIL: 707 CELLS/uL
  BASOPHIL: 0%
  EOSINOPHIL: 0.33%
  ERYTHROCYTE COUNT: 5.6 x10E6/uL
  HEMATOCRIT: 34.33%
  HEMOGLOBIN: 13.27 G/DL
  LEUKOCYTE COUNT: 5.43 x10E3/uL
  LYMPHOCYTE: 85.33%
  MEAN CORPUSCULAR HEMOGLOBIN: 23.8 pg
  MEAN CORPUSCULAR HEMOGLOBIN CONCENTRATION: 38.7 G/DL
  MONOCYTE: 1.33%
  NEUTROPHIL: 13%
  NUCLEATED RED BLOOD CELLS: 0 /100WBC
  PLATELET COUNT: 1134.33 x10E3/uL
  ALANINE AMINOTRANSFERASE: 160.33 u/L
  ALBUMIN: 3.97 G/DL
  ALKALINE PHOSPHATASE: 307 u/L
  ASPARTATE AMINOTRANSFERASE: 119 u/L
  BLOOD UREA NITROGEN: 16 mg/dL
  CARBON DIOXIDE: 26.67 mmol/L
  CHLORIDE: 98.67 MEQ/L
  CHOLESTEROL: 66.33 mg/dL
  CREATINE PHOSPHOKINASE: 501.67 u/L
  CREATININE: 0.25 mg/dL
  LACTATE DEHYDROGENASE: 115 u/L
  LIPASE: 9.67 u/L
  PHOSPHORUS: 7.87 mg/dL
  POTASSIUM: 4.33 MEQ/L
  SODIUM: 141.6 MEQ/L
  TOTAL BILIRUBIN: 0.2 mg/dL
  TOTAL PROTEIN: 5.1 G/DL
  URIC ACID: 0.3 mg/dL
